Assay results as given in doi:10.1101/404459v1 (biorxiv, 2018).

T1: PbCLK3 (Plasmodium berghei, UniProt A0A509AKE9)
T1 sequence (A0A509AKE9 1-706): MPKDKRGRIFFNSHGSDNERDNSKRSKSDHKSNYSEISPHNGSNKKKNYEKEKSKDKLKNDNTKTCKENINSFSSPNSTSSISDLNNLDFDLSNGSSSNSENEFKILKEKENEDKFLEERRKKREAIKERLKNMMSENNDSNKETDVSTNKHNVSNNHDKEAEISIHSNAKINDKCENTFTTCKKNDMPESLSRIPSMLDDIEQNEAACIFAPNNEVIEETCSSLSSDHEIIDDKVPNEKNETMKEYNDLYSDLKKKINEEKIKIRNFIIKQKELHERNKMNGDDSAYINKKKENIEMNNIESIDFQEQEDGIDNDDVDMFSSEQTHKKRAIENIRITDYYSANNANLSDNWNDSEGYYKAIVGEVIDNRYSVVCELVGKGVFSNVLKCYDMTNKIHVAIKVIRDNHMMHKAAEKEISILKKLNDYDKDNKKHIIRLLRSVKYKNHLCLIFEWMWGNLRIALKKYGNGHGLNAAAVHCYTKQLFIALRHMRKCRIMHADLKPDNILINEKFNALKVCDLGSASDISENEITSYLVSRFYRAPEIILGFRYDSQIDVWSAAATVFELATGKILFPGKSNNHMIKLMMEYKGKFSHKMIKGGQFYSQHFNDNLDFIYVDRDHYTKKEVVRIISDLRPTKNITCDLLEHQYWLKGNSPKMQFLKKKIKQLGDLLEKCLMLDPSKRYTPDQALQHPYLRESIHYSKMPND

B1: PfCLK1 (Plasmodium falciparum 3D7) (protein)
chain: DDEIVHFSWKKGMLLNNAFLVIRKMGDGTFGRVLLCQHIDNKKYYAVKVVRNIKKYTRSAKIEADILKKIQNDDINNNNIVKYHGKFMYYDHMCLIFEPLGPSLYEIITRNNYNGFHIEDIKLYCIEILKALNYLRKMSLTHTDLKPENILLDDPYFEKSLITVRRVTDGKKIQIYRTKSTGIKLIDFGCATFKSDYHGSIINTRQYRAPEVILNLGWDVSSDMWSFGCVLAELYTGSLLFRTHEHMEHLAMMESIIQPIPKNMLYEATKTNGSKYVNKDELKLAWPENASSINSIKHVKKCLPLYKIIKHELFCDFLYSILQIDPTLRPSPAELLKHKFLE

Assays:
[1] = molecular target: T1, PbCLK3; assay: TR-FRET kinase assay; assay type: biochemical; details: recombinant kinase
[2] = molecular target: PvCLK3; assay: TR-FRET kinase assay; assay type: biochemical, Plasmodium vivax; details: recombinant kinase
[3] = substrate: Nc1ncnc2c1ncn2[C@@H]1O[C@H](COP(=O)(O)OP(=O)(O)OP(=O)(O)O)[C@@H](O)[C@H]1O; assay: purified protein; details: co-substrate ULight-CREBtide; pH […]; […] MgCl2; room temperature

Molecule	pIC50 [1]	pIC50 [2]	Km [3] [µM]
CCN(CC)Cc1ccc(OC)c(-c2cc3c(-c4ccc(C(=O)O)c(C(C)C)c4)ccnc3[nH]2)c1 [TCMDC-135051]	7.47 ± 0.12	7.86 ± 0.10	
B1			30
